Activity calls are given as the source filed them. No cut-off for these calls is given here.

Here are results for three molecules from ChEMBL document CHEMBL3045513, “Design, synthesis, and biological evaluation of novel 2,4-thiazolidinedione derivatives as histone deacetylase inhibitors targeting liver cancer cell line” (Med Chem Res, 2012).

Data set [1] addresses T1, Histone deacetylase (Homo sapiens) (UniProt Q13547+O15379+Q9UBN7+Q92769+Q9UQL6+Q8WUI4+Q9BY41+Q96DB2+P56524+Q9UKV0+Q969S8). The note with it: HepG2, 1 mM.
Description: Inhibition of histone deacetylase in Homo sapiens (human) HepG2 cells at 1 mM after 8 hr by colorimetry
The test system of data set [2] is HepG2. As to the kind of experiment: Antiproliferative activity against Homo sapiens (human) HepG2 cells assessed as elongated shaped cells. Type of data set: functional, cell-based.
For data set [3], the system named is HepG2. Put plainly: Antiproliferative activity against Homo sapiens (human) HepG2 cells at 100 uM after 48 hr by MTT assay. Type of data set: functional. The note with it: HepG2, 48 h. (Tetrazolium assays rely on reduction of a dye to a coloured formazan, in cell work by metabolically active cells.)
Data set [4] in a line: Cytotoxicity against Homo sapiens (human) WRL68 cells at 100 uM after 120 hr by MTT assay. Conditions: read-out: INH. Type of data set: cell-based.
In data set [5] the target is T1, Histone deacetylase (Homo sapiens). Put plainly: Inhibition of histone deacetylase in Homo sapiens (human) HepG2 cells assessed as hyperacetylation of H3 at 100 uM after 8 hr by Western blot analysis. Type of data set: cell-based.
For data set [6] the target is unchanged. Put plainly: Inhibition of histone deacetylase in Homo sapiens (human) HepG2 nuclear extract assessed as low level acetylation of H2B at 100 uM after 8 hr by TAU PAGE analysis. Type of data set: protein assay.
The target is the same in data set [7]. Put plainly: Inhibition of histone deacetylase in Homo sapiens (human) HepG2 nuclear extract assessed as low level acetylation of H2A at 100 uM after 8 hr by TAU PAGE analysis. Type of data set: protein assay.
Data set [8] shares this target. As to the kind of experiment: Inhibition of histone deacetylase in Homo sapiens (human) HepG2 nuclear extract assessed as hyperacetylation of H4 at 100 uM after 8 hr by TAU PAGE analysis. Type of data set: protein assay.
For data set [9] the target is unchanged. As to the kind of experiment: Inhibition of histone deacetylase in Homo sapiens (human) HepG2 nuclear extract assessed as hyperacetylation of H3 at 100 uM after 8 hr by TAU PAGE analysis. Type of data set: protein assay.
For data set [10], the system named is HepG2. Put plainly: Antiproliferative activity against Homo sapiens (human) HepG2 cells at 100 uM after 120 hr by MTT assay. Type of data set: functional. Conditions: HepG2, 120 h.
A short description of data set [11]: Cytotoxicity against Homo sapiens (human) WRL68 cells at 100 uM after 48 hr by MTT assay. Type of data set: cell-based. Conditions: read-out: INH.
The target of data set [12] is T1, Histone deacetylase (Homo sapiens). As to the kind of experiment: Inhibition of histone deacetylase in Homo sapiens (human) HepG2 cells at 100 uM after 8 hr by colorimetry. Type of data set: cell-based.

Broadly, the inhibition is the percentage by which the read-out fell short of the control. On to `CCCC(=O)[O-].[Na+]`, for which, in data set [1], the inhibition is 52.3%.

For the molecule `O=C1CSC(=O)N1CCCCCCNS(=O)(=O)c1ccccc1`, the outcome (in the data set with HepG2 [2]; in data set [5]; in data set [6]; in [7]; in data set [8]; in data set [9]) was Active. Moreover, the inhibition at 100 µM with HepG2 [3] was determined as 57.3%; with HepG2 [10], 69.5%. The cytotoxicity at 120 h, 100 µM in [4] came to 55.6%. In addition, the cytotoxicity at 48 h, 100 µM in data set [11] was found to be 37.5%. In [12], this molecule gave an inhibition of 56.9%.

Take `O=C(NCCCCCCN1C(=O)CSC1=O)c1ccccc1`: the result (in the data set on HepG2 [2]; in data set [5]; in [6]; in data set [7]; in data set [8]; in data set [9]) was Active. For the same molecule, the values for the inhibition at 100 µM in the data set with HepG2 [3] and with HepG2 [10] were 42.3% and 83%, respectively. Also, the cytotoxicity at 120 h, 100 µM in [4] stood at 92.3%. Further, the cytotoxicity at 48 h, 100 µM in data set [11] stood at 34.7%. The inhibition in data set [12] amounted to 42.1%.
